Assay results from publication PMC9143506, “Investigating the Mechanisms behind the Positive Food Effect of Abiraterone Acetate: In Vitro and Rat In Situ Studies” (Pharmaceutics, 2022).
≈ marks a conversion by molar mass, not a printed value. Read-outs that look alike come from different tables or passages of the source. Values belong to the compound of their own block, whether it stands above or below them.

Columns and labels:
[1] = tested on: porcine pancreatin; assay: Enzymatic conversion of abiraterone acetate to abiraterone by porcine pancreatin; type: in vitro ADME; conditions: porcine pancreatin 0.83 mg/mL (same with esterases), 150 μM
Protocol: (§1) The conversion of abiraterone acetate to abiraterone was studied in the abovementioned media using either 80 IU/mL esterase from porcine liver or 0.83 mg/mL porcine pancreatin. A total of 150 µM abiraterone acetate (DMSO stock solution) was added to 2 mL of the media in a 12-well plate and placed in a prewarmed shaking incubator (37 °C, 300 rpm; Thermostar, BMG Labtech, Offenburg, Germany). Samples were obtained in triplicate at predetermined time points and centrifuged immediately (20.817 g, 5 min). When lipids were present, drug concentrations were determined in both total (lipid + micellar) and micellar layer as described above.

[2] = design: method as in PMID 25592324; conditions: FaSSIF, pH 6.5; cited from earlier work
[3] = 24 h, pH 6.5
Protocol: (§2) The apparent solubility (i.e., including both molecules freely dissolved in the aqueous phase and molecules solubilised in colloidal structures and lipid droplets [12]) of abiraterone and abiraterone acetate was determined in the different simulated fed state media (i.e., FeSSIF*, FeSSIF*-FM, FeSSIF*-FMT, FeSSIF*-FMTh, FeSSIF*-Th and FeSSIF*-E) using the shake flask method. Approximately 0.3 mg of compound was added to microcentrifuge tubes containing 0.3 mL of the abovementioned media and placed in a prewarmed shaking incubator (37 °C, 175 rpm; KS 4000 I control incubator from Ika (Staufen, Germany)) for 24 h. To the media containing lipid digestion products, 0.9 mg of compound was added instead of 0.3 mg. All solubility experiments were performed in triplicate. Afterwards, samples were centrifuged to separate the solid phase from the dissolved part (20.817 g, 30 min at 37 °C). […] To determine the solubility in the micellar layer, the top lipid layer was aspirated upon which the supernatant was diluted in MeOH:H2O (50:50 v/v) containing IS (abiraterone-d4 and abiraterone acetate-d4, final concentration 50 nM). To determine the solubility in the total sample, the entire supernatant was transferred into a new microcentrifuge tube and vortexed upon which the supernatant was diluted in MeOH:H2O (50:50 v/v) containing IS to fit the linear range.

[4] = physchem; conditions: 37 °C, Apparent solubility, micellar
Protocol: as §2

[5] = cited from earlier work
[6] = PAMPA
Protocol: (§3) To investigate the impact of TG and lipid digestion products (FFA, MG) on the passive permeation of abiraterone, transport experiments were performed in the AMI-system according to Berben et al. [13]. In short, a regenerated cellulose membrane (molecular weight cut-off 2 kDa) was mounted between two plastic rings resulting in a surface area of 4.91 cm^2. Membrane integrity was checked by water leakage. The AMI-system was placed in a six-well plate on a shaking incubator at 37 °C and 300 rpm. A 1:3 ratio was maintained between donor and acceptor volumes by applying 2 mL of TPGS-solution to the acceptor compartment and 665 µL of the donor solution of abiraterone in the media prepared as described above. The initial concentration of abiraterone depended on the medium to ensure donor concentrations below the solubility and sufficient permeation to quantify the permeated amount in the acceptor compartment: 10 μM in FaSSIF, 30 μM in FeSSIF*, FeSSIF*-Th and FeSSIF*-E, and 150 μM in FeSSIF*-FM, FeSSIF*-FMT and FeSSIF*-FMTh. Samples (100 µL) were taken from the acceptor compartment at 15, 30, 45, 60 and 120 min and diluted 1:1 in MeOH:H2O (50:50 v/v) containing IS. Subsequently, the withdrawn volumes were replaced by fresh TPGS-solution.
(§4) The apparent permeability coefficient (Papp) was calculated from the cumulative amount of abiraterone appearing in the acceptor compartment according to Equation (1):(1) Papp=dQ/dt×1/A×Cdonor where dQ/dt is the amount of abiraterone appearing in the acceptor compartment over time, A represents the effective surface area available for transport, and Cdonor is the initial concentration in the donor compartment. Data are represented as mean ± standard deviation (SD).

[7] = 1000 mg a day; cited from earlier work
[8] = tested on: esterase from porcine liver; assay: Enzymatic conversion of abiraterone acetate to abiraterone by porcine esterases; type: in vitro ADME; conditions: 80 IU/mL porcine esterases
Protocol: as §1

[9] = Passive permeation in the artificial membrane insert system (AMI-system)
Protocol: as §3, §4

[10] = Apparent solubility, shake flask method in simulated intestinal media; conditions: 37 °C, pH 6.5, 37 °C, mean ± SD (n = 3)
Protocol: as §2

[11] = tested on: small intestine (ileum); assay: Rat in situ intestinal perfusion with mesenteric blood sampling
[12] = FeSSIF*-FM, FeSSIF*-FMT and FeSSIF*-FMTh
[13] = abiraterone acetate suspension 0.5 mg/mL, 80 IU/mL esterases

- Degradation in FeSSIF* compared to FeSSIF*-E [1]: degraded faster
- Increase of concentration in the total sample in FeSSIF*-FMTh compared to FeSSIF*-FMT [3]: 2 fold
- Increase of solubility in FeSSIF*-FM compared to FeSSIF* [3]: 14 fold
- solubility at 24 h ([4]; pH 6.5, fessif, thermodynamic from solid): 148 µM
- solubility at 24 h ([4]; pH 6.5, thermodynamic from solid): 2110 µM
- Permeation across the cellulose membrane [6]: too low
- Time to almost full conversion to abiraterone ([8]; FaSSIF and FeSSIF*, 150 µM, 37 °C): ≤ 30 min
- Conversion in media containing lipid degradation products [8, 12]: very limited
- Degradation in media with undigested TG ([8]; FeSSIF*-Th and FeSSIF*-E): slower degradation
Structure (SMILES): CC(=O)O[C@H]1CC[C@@]2(C)C(=CC[C@@H]3[C@@H]2CC[C@]2(C)C(c4cccnc4)=CC[C@@H]32)C1 [abiraterone acetate]
- Apparent solubility, micellar [2]: 64.6 (±5.2) ^1 µM
- Log P [5]: 5.12
- Excretion of the oral dose [7]: largely excreted in the faeces

Structure (SMILES): C[C@]12CC[C@H](O)CC1=CC[C@@H]1[C@@H]2CC[C@]2(C)C(c3cccnc3)=CC[C@@H]12 [abiraterone]
- Permeability (Papp) in FaSSIF ([9]; FaSSIF, 10 μM donor, compared to Papp values of 14 compounds of ref 13): low permeability
- Lowering of permeability in FeSSIF* compared to FaSSIF ([9]; FeSSIF* vs FaSSIF): 2.6 fold
- Change of passive permeability with FFA and MG [9, 12]: significant decrease
- Effect of addition of TG to FeSSIF* on Papp ([9]; FeSSIF*-Th and FeSSIF*-E vs FeSSIF*): did not have an effect
- Apparent solubility, micellar [2]: 12.7 (±4.2) ^1 µM
- Increase of solubility in FeSSIF*-FM compared to FeSSIF* [3]: 5 fold
- solubility at 24 h ([10]; FeSSIF*, micellar, pH 6.5, fessif, thermodynamic from solid): 32.7 µM (≈ 11.4 µg/mL)
- solubility at 24 h ([10]; FeSSIF*-E, micellar layer of the supernatant, pH 6.5, thermodynamic from solid, micellar layer): 22 µM (≈ 7.69 µg/mL)
- solubility at 24 h ([10]; FeSSIF*-E, total sample (micellar + lipid layer), pH 6.5, thermodynamic from solid, total sample (micellar + lipid layer), FeSSIF*-E): 39 µM
- solubility at 24 h ([10]; FeSSIF*-FM, micellar, pH 6.5, thermodynamic from solid): 176 µM (≈ 61.5 µg/mL)
- solubility at 24 h ([10]; FeSSIF*-FMT, micellar layer of the supernatant, pH 6.5, thermodynamic from solid, micellar layer): 161 µM (≈ 56.3 µg/mL)
- solubility at 24 h ([10]; FeSSIF*-FMT, total sample (micellar + lipid layer), pH 6.5, thermodynamic from solid, total sample (micellar + lipid layer), FeSSIF*-FMT): 199 µM
- solubility at 24 h ([10]; FeSSIF*-FMTh, micellar layer of the supernatant, pH 6.5, thermodynamic from solid, micellar layer): 158 µM (≈ 55.2 µg/mL)
- solubility at 24 h ([10]; FeSSIF*-FMTh, total sample (micellar + lipid layer), pH 6.5, thermodynamic from solid, total sample (micellar + lipid layer), FeSSIF*-FMTh): 221 µM
- solubility at 24 h ([10]; FeSSIF*-Th, micellar layer of the supernatant, pH 6.5, thermodynamic from solid, micellar layer): 31 µM (≈ 10.8 µg/mL)
- solubility at 24 h ([10]; FeSSIF*-Th, total sample (micellar + lipid layer), pH 6.5, thermodynamic from solid, total sample (micellar + lipid layer), FeSSIF*-Th): 50 µM
- Log P ([5]; quoted in the discussion of solubility, no reference given): 3.97
- Supersaturation in the perfusate ([11]; FaSSIF and FeSSIF*, entire course of the experiment): apparent supersaturation
- Supersaturation in the perfusate ([11]; FeSSIF*-FM, FeSSIF*-FMT, FeSSIF*-FMTh): No supersaturation was observed
- Absorptive flux in media with lipid digestion products ([11]; FeSSIF*-FM, FeSSIF*-FMT, FeSSIF*-FMTh, abiraterone acetate suspension 0.5 mg/mL, 80 IU/mL esterases): comparable to the flux in FaSSIF
- Abiraterone AUC0–60min in the perfusate, FeSSIF* compared to FaSSIF [11, 13]: much higher
- Abiraterone flux towards the mesenteric vein, FeSSIF* compared to FaSSIF [11, 13]: increased
- Absorptive flux in FeSSIF*-E and FeSSIF*-Th compared to FaSSIF [11, 13]: increased
- Absorptive flux in FeSSIF*-Ed compared to FaSSIF and FeSSIF*-FMT ([11]; ongoing lipolysis, pancreatin 0.83 mg/mL, abiraterone acetate suspension 0.5 mg/mL): substantially higher
